Data taken from patent publication US20230192617A1, “AZABICYCLIC(THIO)AMIDES AS FUNGICIDAL COMPOUNDS” (Bayer CropScience Aktiengesellschaft, priority 2020, published 2023).

Columns and labels:
[1] = system: Colletotrichum lindemuthianum; experiment: B-8. Colletotrichum lindemuthianum in vitro cell test; type: cell-based; conditions: 144 h, 20 ppm of active ingredient, 6 days incubation, liquid culture, absorbance, read-out: efficacy (inhibition of fungal growth)
Outline: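 Spore suspension of C. lindemuthianum in liquid medium exposed to DMSO-solubilized compounds (final DMSO ≤1%) for 6 days. Mycelial growth read by absorbance, with inhibition calculated relative to compound-free control wells.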

Botrytis cinerea [2] = experiment: In vivo preventive test on Botrytis cinerea (grey mould); conditions: 500 ppm of active ingredient, preventive spray on gherkin or cabbage, evaluated 4 to 5 days after inoculation, read-out: efficacy
Experimental: (§1) B-2. In Vivo Preventive Test on Botrytis cinerea (Grey Mould) [table] The active ingredients were made soluble and homogenized in a mixture of Dimethyl sulfoxide/Acetone/Tween® 80 and then diluted in water to the desired concentration. The young plants of gherkin or cabbage were treated by spraying the active ingredient prepared as described above. Control plants were treated only with an aqueous solution of Acetone/Dimethyl sulfoxide/Tween® 80. After 24 hours, the plants were contaminated by spraying the leaves with an aqueous suspension of Botrytis cinerea spores. The contaminated gherkin plants were incubated for 4 to 5 days at 17° C. and at 90% relative humidity. The contaminated cabbage plants were incubated for 4 to 5 days at 20° C. and at 100% relative humidity.

[3] = Measurement of Log P values by HPLC on reversed phase columns (EEC directive 79/831 Annex V.A8); type: physicochemical; conditions: method [a]: LC-UV, acidic range, 0.1% formic acid in water and acetonitrile as eluent; for chromatographic logP: reversed phase HPLC column
Outline: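 Reversed-phase HPLC with UV detection per EEC 79/831 Annex V.A8, linear 10–95% acetonitrile gradient. Aqueous eluent: 0.1% formic acid (acidic), 0.001 M ammonium acetate (neutral), or 0.1% phosphoric acid (acidic); multiple values in one method joined by "+".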

Botrytis cinerea [4] = experiment: B-11. Botrytis cinerea in vitro cell test; type: cell-based; conditions: 144 h, 20 ppm of active ingredient, 6 days incubation, liquid culture, absorbance, read-out: efficacy (inhibition of fungal growth)
Experimental: (§2) B-11. Botrytis cinerea In Vitro Cell Test [table] Fungicides were solubilized in DMSO and the solution used to prepare the required range of concentrations. The final concentration of DMSO used in the assay was ≤1%. A spore suspension of B. cinerea was prepared and diluted to the desired spore density. Fungicides were evaluated for their ability to inhibit spore germination and mycelium growth in liquid culture assay. The compounds were added in the desired concentration to the culture medium with spores. After 6 days incubation, fungi-toxicity of compounds was determined by spectrometric measurement of mycelium growth. Inhibition of fungal growth was determined by comparing the absorbance values in wells containing the fungicides with the absorbance in control wells without fungicides.

Alternaria brassicae = experiment: In vivo preventive test on Alternaria brassicae (leaf spot on radish or cabbage); conditions: 500 ppm of active ingredient, preventive spray on radish or cabbage, evaluated 3 to 4 days after inoculation, read-out: efficacy
Experimental: B-1. In Vivo Preventive Test on Alternaria brassicae (Leaf Spot on Radish or Cabbage) [table] The active ingredients were made soluble and homogenized in a mixture of Dimethyl sulfoxide/Acetone/Tween® 80 and then diluted in water to the desired concentration. The young plants of radish or cabbage were treated by spraying the active ingredient prepared as described above. Control plants were treated only with an aqueous solution of Acetone/Dimethyl sulfoxide/Tween® 80. After 24 hours, the plants were contaminated by spraying the leaves with an aqueous suspension of Alternaria brassicae spores. The contaminated radish or cabbage plants were incubated for 3 to 4 days at 20° C. and at 100% relative humidity.

Pyrenophora teres = experiment: B-10. Pyrenophora teres in vitro cell test; type: cell-based; conditions: 144 h, 20 ppm of active ingredient, 6 days incubation, liquid culture, absorbance, read-out: efficacy (inhibition of fungal growth)
Experimental: as §2, with “B-10. Pyrenophora teres” for “B-11. Botrytis cinerea”, “P. teres” for “B. cinerea”

Sphaerotheca fuliginea = experiment: In vivo preventive test on Sphaerotheca fuliginea (powdery mildew on cucurbits); conditions: Podosphaera fuliginea, 192 h; 500 ppm of active ingredient; preventive spray on gherkin; evaluated 8 days after inoculation; read-out: efficacy
Experimental: as §1, with “B-4. in vivo preventive test” for “B-2. In Vivo Preventive Test”, “Sphaerotheca fuliginea (powdery mildew on cucurbits)” for “Botrytis cinerea (Grey Mould)”, “gherkin” for “gherkin or cabbage”, “Sphaerotheca fuliginea” for “Botrytis cinerea”, “8” for “4 to 5 days at 17° C. and at 90% relative humidity. The contaminated cabbage plants were incubated for 4 to 5”, “70-80%” for “100%”

Alternaria alternata = Alternaria alternata in vitro cell test; type: cell-based; conditions: 120 h, 20 ppm of active ingredient, liquid culture, 5 days incubation, spectrometric measurement of mycelium growth, read-out: efficacy (inhibition of fungal growth)
Experimental: as §2, with “B-6. Alternaria alternata” for “B-11. Botrytis cinerea”, “A. alternata” for “B. cinerea”, “5” for “6”

SMILES | chromatographic logP [3] | LogP [3] | inhibition at 20 ppm [1] [%] | pest or weed control at 500 ppm (Botrytis cinerea [2]) [%] | inhibition at 20 ppm (Botrytis cinerea [4]) [%] | pest or weed control at 500 ppm (Alternaria brassicae) [%] | inhibition at 20 ppm (Pyrenophora teres) [%] | pest or weed control at 500 ppm (Sphaerotheca fuliginea) [%] | inhibition at 20 ppm (Alternaria alternata) [%]
COc1ccc2c(c1)[C@@H](NC(=O)c1c(Oc3cccc(C(F)(F)F)c3)nnc3ccccc13)[C@@H](OC)CC2 (mixture of isomers) [I-180] | 3.78 | 4.02 | 90 to 100 | 80 to 89 | 90 to 100 | 90 to 100 | 90 to 100 |  | 
C[C@H](NC(=O)c1c(Oc2cncc(C(F)(F)F)c2)nnc2ccccc12)c1cccc(C(F)(F)F)c1 (racemic) [I-028] | 3.57 |  | 80 to 89 | 90 to 100 |  |  |  | 90 to 100 | 
Cc1ccc2c(c1)[C@@H](NC(=O)c1c(Oc3cccc(C(F)(F)F)c3)nnc3ccccc13)COC2 (racemic) [I-083] | 3.73 |  | 90 to 100 | 90 to 100 | 90 to 100 | 90 to 100 | 90 to 100 |  | 80 to 89
Cc1ccc(C(F)(F)CNC(=O)c2c(Oc3cccc(C(F)(F)F)c3)cnc3ccccc23)c(C)c1 [I-039, N-[2-(2,4-dimethylphenyl)-2,2-difluoro-ethyl]-3-[3-(trifluoro-methyl)phenoxy]quinoline-4-carboxamide] | 4.46 |  | 90 to 100 | 90 to 100 |  |  |  | 90 to 100 | 90 to 100
CC(=O)c1ccc(C(F)(F)CNC(=O)c2c(Oc3cccc(C(F)(F)F)c3)nnc3ccccc23)c(Cl)c1 [I-069] | 3.84 |  | 70 to 79 | 90 to 100 | 90 to 100 | 90 to 100 | 90 to 100 |  | 80 to 89
CC(C)Oc1ccc(CCNC(=O)c2c(Oc3cccc(C(F)(F)F)c3)nnc3ccccc23)cn1 [I-087] | 3.63 |  | 90 to 100 |  | 90 to 100 | 80 to 89 | 90 to 100 |  | 90 to 100
COc1ccc(CCN(C(C)=O)C(=O)c2c(Oc3cccc(C(F)(F)F)c3)nnc3ccccc23)cc1 [I-090] | 4.32 |  | 80 to 89 | 90 to 100 | 90 to 100 | 90 to 100 | 90 to 100 |  | 
O=C(NCCc1ccc2c(c1)OCO2)c1c(Oc2cccc(C(F)(F)F)c2)nnc2ccccc12 [I-092] | 3.45 |  | 90 to 100 | 90 to 100 | 90 to 100 | 90 to 100 | 90 to 100 |  | 90 to 100
Cc1scc(CCNC(=O)c2c(Oc3cccc(C(F)(F)F)c3)nnc3ccccc23)c1C [I-093] | 4.11 |  | 90 to 100 | 90 to 100 | 90 to 100 | 90 to 100 | 90 to 100 |  | 70 to 79
Cc1ccc(C(F)(F)CNC(=S)c2c(Oc3cccc(C(F)(F)F)c3)cnc3ccccc23)c(C)c1 [I-159] | 5.17 |  | 70 to 79 |  |  |  |  | 90 to 100 | 
O=C(NCC(F)(F)c1ccccc1Cl)c1c(Oc2cccc(C(F)(F)F)c2)nnc2ccccc12 [I-214] | 4.12 |  | 90 to 100 | 90 to 100 | 90 to 100 | 90 to 100 | 90 to 100 |  | 90 to 100
O=C(NCCc1cccs1)c1c(Oc2cccc(C(F)(F)F)c2)nnc2ccccc12 [I-237] | 3.53 |  | 80 to 89 | 70 to 79 | 90 to 100 | 90 to 100 | 90 to 100 |  | 90 to 100
O=C(NCCn1cc(Cl)cn1)c1c(Oc2cccc(C(F)(F)F)c2)nnc2ccccc12 [I-244] | 3 |  | 90 to 100 | 80 to 89 | 90 to 100 | 90 to 100 | 90 to 100 |  | 90 to 100

Now from value to molecule, other results behind:

chromatographic logP [3] | LogP [3] | SMILES | inhibition at 20 ppm [1] [%] | pest or weed control at 500 ppm (Botrytis cinerea [2]) [%] | inhibition at 20 ppm (Botrytis cinerea [4]) [%] | pest or weed control at 500 ppm (Alternaria brassicae) [%] | inhibition at 20 ppm (Pyrenophora teres) [%] | pest or weed control at 500 ppm (Sphaerotheca fuliginea) [%] | inhibition at 20 ppm (Alternaria alternata) [%]
4.42 |  | C[C@@H]1CC[C@H](NC(=O)c2c(Oc3cccc(C(F)(F)F)c3)nnc3ccccc23)c2ccccc21 (mixture of isomers) [I-079] | 90 to 100 | 90 to 100 | 90 to 100 | 90 to 100 | 90 to 100 |  | 
4.07 |  | Cc1cccc2c1OCC[C@@H]2NC(=O)c1c(Oc2cccc(C(F)(F)F)c2)nnc2ccccc12 (racemic) [I-082] | 90 to 100 | 90 to 100 | 90 to 100 | 90 to 100 | 90 to 100 |  | 90 to 100
4.45 |  | Cc1ccc(C(F)(F)CNC(=O)c2c(Oc3cccc(C(F)(F)F)c3)nnc3cc(C)ccc23)c(C)c1 [I-044] | 90 to 100 |  |  | 90 to 100 |  | 80 to 89 | 90 to 100
3.71 |  | Cn1cc(-c2ccc(C(F)(F)CNC(=O)c3c(Oc4cccc(C(F)(F)F)c4)nnc4ccccc34)c(Cl)c2)cn1 [I-065] |  | 90 to 100 | 90 to 100 | 90 to 100 | 90 to 100 |  | 70 to 79
4.12 |  | COCc1ccc(C(F)(F)CNC(=O)c2c(Oc3cccc(C(F)(F)F)c3)nnc3ccccc23)c(Cl)c1 [I-074] | 90 to 100 | 90 to 100 | 90 to 100 | 90 to 100 | 90 to 100 |  | 90 to 100
3.94 |  | O=C(NCCOc1ccc(Cl)cc1)c1c(Oc2cccc(C(F)(F)F)c2)nnc2ccccc12 [I-085] | 80 to 89 |  | 90 to 100 | 90 to 100 | 90 to 100 |  | 90 to 100
3.38 |  | Cc1ccc(C(F)(F)CNC(=O)c2c(Oc3cccc(Cl)c3F)cnc3nccnc23)c(C)c1 [I-100] | 90 to 100 | 90 to 100 | 90 to 100 | 90 to 100 | 90 to 100 |  | 90 to 100
